Measurements taken from US20260008780A1, “SUBSTITUTED 3,4-DIHYDROISOQUINOLIN-1(2H)-ONE DERIVATIVES AND RELATED USES” (NodThera Limited, priority 2022, published 2026).
Counter-ions that a name gives are not always drawn.

Test system: IL-1β release upon NLRP3 activation in peripheral blood mononuclear cells (PBMC)
Assay: PBMC IC50 Determination Assay
Format: cell-based
Details: Homo sapiens; PBMC from buffy coats, LPS 3 h, compound 30 min, then ATP (5 mM) or nigericin (10 μM) 1 h; IL-1β in media by ELISA (Protocol A) or HTRF (Protocol B)
Experimental: The compounds of the present disclosure were tested for their inhibitory activity against IL-1β release upon NLRP3 activation in peripheral blood mononuclear cells (PBMC).
Protocol A. PBMC were isolated from buffy coats by density gradient centrifugation on Histopaque-1077 (Sigma, cat no. 10771). Isolated cells were seeded into the wells of a 96-well plate and incubated for 3 h with lipopolysaccharide (LPS). Following medium exchange, the compounds of the present disclosure were added (a single compound per well) and the cells were incubated for 30 min. Next, the cells were stimulated either with ATP (5 mM) or nigericin (10 μM) for 1 h and the cell culture media from the wells were collected for further analysis.
The release of IL-1β into the media was determined by a quantitative detection of IL-1β in the media using an IL-1p enzyme-linked immunosorbent assay (ELISA) Ready-SET-Go!, eBioscience cat. No. 88-7261-88. Briefly, in a first step, high affinity binding plates (Corning, Costar 9018 or NUNC Maxisorp Cat No. 44-2404) were coated overnight at 4° C. with specific capture antibody included in the kit (anti-human IL-1β ref 14-7018-68). Subsequently, plates were blocked with blocking buffer for 1 h at room temperature (rt) and after washing with a buffer (PBS with 0.05% Tween-20) incubated with protein standard and culture media. After 2 h of incubation at rt, plates were washed and incubated with biotinylated detection antibody included in the kit (anti-human IL-1β Biotin ref. 33-7110-68) for 1 h at rt. Plates were washed and incubated with HRP-streptavidin for 30 min at rt and washed again. The signal was developed after addition of 3,3′,5,5′-tetramethylbenzidine-peroxidase (TMB) until colour appeared and the reaction was stopped by 2 M H2SO4. A microplate spectrophotometer (BioTek) was used to detect signals with 450 nm. The detection range of IL-1β ELISA was […].
Protocol B. PBMC were isolated from buffy coats by density gradient centrifugation on Histopaque-1077 (Sigma, cat no. 10771). Isolated cells were seeded into the wells (280,000 cells/well) of a 96-well plate and incubated for 3 h with lipopolysaccharide (LPS, 1 μg/mL diluted 1000× from a 1 mg/mL stock solution). The compounds of the present disclosure were added (a single compound per well) and the cells were incubated for 30 min. Next, the cells were stimulated with ATP (5 mM final concentration diluted 20× from a 100 mM stock solution) for 1 h and the cell culture media from the wells were collected for further analysis.
The release of IL-1β into the media was determined by quantitative detection of IL-1β in the media using HTRF®, CisBio cat. No. 62HIL1BPEH. Briefly, cell culture supernatant were dispensed directly into the assay plate containing antibodies labelled with the HTRF® donor and acceptor. A microplate spectrophotometer (BMG) was used to detect signals at 655 nm and 620 nm. The detection range of IL-1β HTRF® was 39-6500 μg/mL.

| SMILES | IC50 [nM] |
| --- | --- |
| C[C@@H]1CN(CC(=O)Nc2ncccn2)C(=O)c2cc3sc(Cl)cc3n21 (racemic) [Compound 9, N-Pyrimidin-2-yl-2-[rac-(12R)-4-chloro-12-methyl-9-oxo-5-thia-1,10-diazatricyclo[6.4.0.02,6]dodeca-2(6),3,7-trien-10-yl]acetamide] | 1000 to 3000 |
| CC1Cn2cccc2C(=O)N1CC(=O)N[C@@H]1CCCN(C2CC2)C1 (stereo partly drawn) [Compound 1, N-[(3R)-1-Cyclopropyl-3-piperidyl]-2-(3-methyl-1-oxo-3,4-dihydropyrrolo[1,2-a]pyrazin-2-yl)acetamide hydrochloride] | 3000 to 10000 |
| C[C@]1(O)C[C@@H](NC(=O)CN2CC3(CC3)n3c(cc4sc(Cl)cc43)C2=O)C1 [Compound 2, cis-2-(4-Chloro-9-oxo-spiro[5-thia-1,10-diazatricyclo[6.4.0.0^2.6]dodeca-2(6),3,7-triene-12,1′-cyclopropane]-10-yl)-N-(3-hydroxy-3-methylcyclobutyl) acetamide] | 1000 to 3000 |
| O=C(CN1CC2(CC2)n2c(cc3sc(Cl)cc32)C1=O)Nc1ncccn1 [Compound 3, 2-(4-Chloro-9-oxo-spiro[5-thia-1,10-diazatricyclo[6.4.0.02,6]dodeca-2(6),3,7-triene-12,1′-cyclopropane]-10-yl)-N-pyrimidin-2-yl-acetamide] | 100 to 1000 |
| O=C(CN1CC2(CC2)n2c(cc3sc(Cl)cc32)C1=O)NC1CC2(COC2)C1 [Compound 4] | 1000 to 3000 |
| Cc1nc(NC(=O)CN2CC3(CC3)n3c(cc4sc(Cl)cc43)C2=O)ns1 [Compound 5, 2-(4-Chloro-9-oxo-spiro[5-thia-1,10-diazatricyclo[6.4.0.0^2,6]dodeca-2(6),3,7-triene-12,1′-cyclopropane]-10-yl)-N-(5-methyl-1,2,4-thiadiazol-3-yl)acetamide] | 1000 to 3000 |
| O=C(CN1CC2(CC2)n2c(cc3sc(Cl)cc32)C1=O)Nc1ncc(F)cn1 [Compound 6, 2-(4-Chloro-9-oxo-spiro[5-thia-1,10-diazatricyclo[6.4.0.0^2.6]dodeca-2(6),3,7-triene-12,1′-cyclopropane]-10-yl)-N-(5-fluoropyrimidin-2-yl)acetamide] | < 100 |
| CCn1cc2c(n1)C1(CC1)CN(CC(=O)Nc1ncc(F)cn1)C2=O [Compound 7, 2-(2-Ethyl-4-oxo-spiro[6H-pyrazolo[4,3-c]pyridine-7,1′-cyclopropane]-5-yl)-N-(5-fluoropyrimidin-2-yl)acetamide] | 1000 to 3000 |
| CC(C)c1cc2n(n1)C1(CC1)CN(CC(=O)Nc1ncccn1)C2=O [Compound 8, 2-(2-Isopropyl-4-oxo-spiro[6H-pyrazolo[1,5-a]pyrazine-7,1′-cyclopropane]-5-yl)-N-pyrimidin-2-yl-acetamide] | 3000 to 10000 |
| C[C@@H]1CN(CC(=O)N[C@H]2C[C@@](C)(O)C2)C(=O)c2cc3sc(Cl)cc3n21 [Compound 10, 2-[(12R)-4-Chloro-12-methyl-9-oxo-5-thia-1,10-diazatricyclo[6.4.0.02,6]dodeca-2(6),3,7-trien-10-yl]-N-(3-hydroxy-3-methyl-cyclobutyl)acetamide] | 3000 to 10000 |
| CC(C)c1cc2n(c1)C1(CC1)CN(CC(=O)Nc1ncccn1)C2=O [Compound 11, 2-(7-Isopropyl-1-oxo-spiro[3H-pyrrolo[1,2-a]pyrazine-4,1′-cyclopropane]-2-yl)-N-pyrimidin-2-yl-acetamide] | 3000 to 10000 |
| CC(C)c1nc2c(s1)C(=O)N(CC(=O)Nc1ncccn1)CC21CC1 [Compound 12, 2-(2-Isopropyl-4-oxo-spiro[6H-thiazolo[5,4-c]pyridine-7,1′-cyclopropane]-5-yl)-N-pyrimidin-2-yl-acetamide] | 3000 to 10000 |
| CCc1nc2c(s1)C(=O)N(CC(=O)Nc1ncccn1)CC21CC1 [Compound 13, 2-(2-Ethyl-4-oxo-spiro[6H-thiazolo[5,4-c]pyridine-7,1′-cyclopropane]-5-yl)-N-pyrimidin-2-yl-acetamide] | 3000 to 10000 |
| CCc1cc2c(s1)C(=O)N(CC(=O)Nc1ncccn1)CC21CC1 [Compound 14, 2-(2-Ethyl-7-oxo-spiro[5H-thieno[2,3-c]pyridine-4,1′-cyclopropane]-6-yl)-N-pyrimidin-2-yl-acetamide] | 100 to 1000 |
| O=C(CN1CC2(CC2)c2nc(C3CC3)sc2C1=O)Nc1ncccn1 [Compound 15, 2-(2-Cyclopropyl-4-oxo-spiro[6H-thiazolo[5,4-c]pyridine-7,1′-cyclopropane]-5-yl)-N-pyrimidin-2-yl-acetamide] | 100 to 1000 |
| CCOC(=O)c1cnc(NC(=O)CN2CC3(CC3)c3nc(C4CC4)sc3C2=O)nc1 [Compound 16, Ethyl 2-[[2-(2-cyclopropyl-4-oxo-spiro[6H-thiazolo[5,4-c]pyridine-7,1′-cyclopropane]-5-yl)acetyl]amino]pyrimidine-5-carboxylate] | 1000 to 3000 |
| CC(C)n1cc2c(n1)C1(CC1)CN(CC(=O)Nc1ncccn1)C2=O [Compound 17, 2-(2-Isopropyl-4-oxo-spiro[6H-pyrazolo[4,3-c]pyridine-7,1′-cyclopropane]-5-yl)-N-pyrimidin-2-yl-acetamide] | 3000 to 10000 |
| CCc1cc2c(o1)C1(CC1)CN(CC(=O)Nc1ncccn1)C2=O [Compound 18, 2-(2′-Ethyl-4′-oxo-4′H-spiro[cyclopropane-1,7′-furo[3,2-c]pyridin]-5′(6′H)-yl)-N-(pyrimidin-2-yl)acetamide] | 100 to 1000 |
| CC(C)c1cc2c([nH]1)C(=O)N(CC(=O)Nc1ncccn1)CC21CC1 [Compound 19, 2-(2′-Isopropyl-7′-oxo-1′,7′-dihydrospiro[cyclopropane-1,4′-pyrrolo[2,3-c]pyridin]-6′(5′H)-yl)-N-(pyrimidin-2-yl)acetamide] | 1000 to 3000 |
| CC(C)c1cc2c(n1C)C(=O)N(CC(=O)Nc1ncccn1)CC21CC1 [Compound 20, 2-(2′-Isopropyl-1′-methyl-7′-oxo-1′,7′-dihydrospiro[cyclopropane-1,4′-pyrrolo[2,3-c]pyridin]-6′(5′H)-yl)-N-(pyrimidin-2-yl)acetamide] | 1000 to 3000 |
| CC(C)c1nc2c(n1C)C(=O)N(CC(=O)Nc1ncccn1)CC21CC1 [Compound 21] | 10000 to 50000 |
| CC(C)c1cc2n(n1)[C@H](C)CN(CC(=O)Nc1ncccn1)C2=O [Compound 22, 2-[(7R)-7-Methyl-4-oxo-2-(propan-2-yl)-4H,5H,6H,7H-pyrazolo[1,5-a]pyrazin-5-yl]-N-(pyrimidin-2-yl)acetamide] | 10000 to 50000 |
| CCNc1cc2c(s1)C(=O)N(CC(=O)Nc1ncccn1)CC21CC1 [Compound 23, 2-(2′-(Ethylamino)-7′-oxo-5′H-spiro[cyclopropane-1,4′-thieno[2,3-c]pyridin]-6′(7′H)-yl)-N-(pyrimidin-2-yl)acetamide] | 1000 to 3000 |
| Cc1cc2c(s1)C(=O)N(CC(=O)Nc1ncccn1)CC21CC1 [Compound 24, 2-(2′-Methyl-7′-oxo-5′H-spiro[cyclopropane-1,4′-thieno[2,3-c]pyridin]-6′(7′H)-yl)-N-(pyrimidin-2-yl)acetamide] | 1000 to 3000 |
| CC(C)c1cc2c(s1)C(=O)N(CC(=O)Nc1ncccn1)CC21CC1 [Compound 25, 2-(2′-Isopropyl-7′-oxo-5′H-spiro[cyclopropane-1,4′-thieno[2,3-c]pyridin]-6′(7′H)-yl)-N-(pyrimidin-2-yl)acetamide] | 100 to 1000 |
| O=C(CN1CC2(CC2)c2cc(C3CC3)sc2C1=O)Nc1ncccn1 [Compound 26, 2-(2′-Cyclopropyl-7′-oxo-5′H-spiro[cyclopropane-1,4′-thieno[2,3-c]pyridin]-6′(7′H)-yl)-N-(pyrimidin-2-yl)acetamide] | 100 to 1000 |
| CC1(c2cc3c(s2)C(=O)N(CC(=O)Nc2ncccn2)CC32CC2)CC1 [Compound 27, 2-(2′-(1-Methylcyclopropyl)-7′-oxo-5′H-spiro[cyclopropane-1,4′-thieno[2,3-c]pyridin]-6′(7′H)-yl)-N-(pyrimidin-2-yl)acetamide] | 100 to 1000 |
| Cc1nc2c(cc3n2C(C)CN(CC(=O)Nc2ncccn2)C3=O)s1 (centres unmarked) [Compound 41] | 10000 to 50000 |
| CCc1cc2c(s1)C(=O)N(CC(=O)Nc1ccc3c(c1)[nH]c(=O)n3C)CC21CC1 [Compound 44, 2-(2′-Ethyl-7′-oxo-5′H-spiro[cyclopropane-1,4′-thieno[2,3-c]pyridin]-6′(7′H)-yl)-N-(1-methyl-2-oxo-2,3-dihydro-1H-benzo[d]imidazol-5-yl)acetamide] | 1000 to 3000 |
